Results on two compounds are retold here after patent US6211223A, “Indole derivatives useful in therapy” (Pfizer Inc., priority 1997, dated 2001).

In assay [1] the target is T1, cloned human ETA receptor (Homo sapiens, UniProt P25101).
T1 sequence (P25101 21-427): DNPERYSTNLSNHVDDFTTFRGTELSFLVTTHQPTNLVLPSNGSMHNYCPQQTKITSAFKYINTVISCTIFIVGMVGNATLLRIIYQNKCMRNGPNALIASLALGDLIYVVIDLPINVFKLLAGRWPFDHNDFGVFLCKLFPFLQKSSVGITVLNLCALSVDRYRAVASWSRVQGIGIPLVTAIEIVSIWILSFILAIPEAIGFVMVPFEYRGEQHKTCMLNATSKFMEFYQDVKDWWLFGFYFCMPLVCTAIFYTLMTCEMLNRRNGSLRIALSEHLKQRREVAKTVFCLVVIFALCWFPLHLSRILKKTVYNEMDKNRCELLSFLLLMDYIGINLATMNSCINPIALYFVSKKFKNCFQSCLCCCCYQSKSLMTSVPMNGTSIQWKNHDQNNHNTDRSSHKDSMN
The assay is described as follows: Test A: Binding Assay, competition with 125I-ET-1, Binding to ETA Receptors (selectivity versus Binding to ETB Receptors). On the procedure:
Competition between test compounds and ^125 I-ET-1 binding to human endothelin receptors is determined as follows.
(§1) 25 μl of a 30 pM solution of [^125 I]Tyr^13 ET-1 (specific activity 2,200 Ci/mM) is mixed with 25 μl samples of test compound (final concentrations in the range 0.1 nM-50,000 nM). 200 μl of a solution containing cloned human ETA receptor (0.75 pmoles receptor protein/ml), 50 mM Tris, 0.5 mM CaCl2, 0.1% human serum albumen, 0.1% bacitracin, 0.05% Tween 20, pH 7.4 is added. The solution is mixed at 37° C. for 2 hours. After the incubation, the unbound ligand is separated from receptor bound ligand by filtration with a Brandel cell harvester, followed by three washes of buffer. Filter papers are counted for radioactivity, and the IC50 (the concentration of test compound at which 50% of the radiolabelled compound is unbound) determined for the concentration range tested.
as §1, with “concentration” for “concentrations in the range”, “ETB” for “ETA”, “(0.25” for “(0.75”

In assay [2] the test system is neointimal formation. Particulars: rats, balloon angioplasty; S. Douglas et al, Circ Res, 75, 1994; cited from earlier work.

Molecules are shown by their SMILES.

On to `COc1cc(C)ccc1S(=O)(=O)NC(=O)[C@@H](c1ccc2c(c1)OCO2)c1cn(C)c2cc(C(=O)O)ccc12` [Example 1, (S)-(+)-3-{1-(1,3-Benzodioxol-5-yl)-2-[(2-methoxy-4-methylphenyl)sulfonyl-amino]-2-oxoethyl}-1-methyl-1H-indole-6-carboxylic acid], for which, in assay [1] (ETA over ETB), the “selectivity for ETA receptors over ETB receptors” value is listed as “approximately 400”. For the same compound, in assay [1] (fraction of the IC50 (ETA) of the (-)-enantiomer), the “IC50 (ETA) relative to that of its enantiomer” value is on record as “approximately one quarter”. Further, in assay [1] (human ETA receptor, read-out: binding affinity for ETA receptors (Ki)), the Ki amounted to 4.18 nM.

Regarding `CCCOc1ccc2c(c1)[C@@H](c1ccc(OC)cc1OCC(=O)O)[C@H](C(=O)O)[C@H]2c1ccc2c(c1)OCO2` [SB-209670], the “reduction in neointimal formation relative to control animals” value in assay [2] was 50%.

As usually defined, the Ki is the equilibrium dissociation constant of an inhibitor or competing ligand from its target.
